# Measurements from US20120165319A1, “INHIBITORS OF INTERLEUKIN-1 BETA CONVERTING ENZYME” (VERTEX PHARMACEUTICALS INCORPORATED, priority 1995, published 2012).
# System: IL-1β, human peripheral blood mononuclear cells (PBMC)
# Assay: PBMC cell assay: IL-1β assay with human PBMC or enriched adherent mononuclear cells, LPS-stimulated
# Assay type: cell-based
# Settings: * = values obtained upon reassay
# Summary of the method: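 Mature IL-1β is measured by ELISA in supernatants after 16–18 hr at 37 °C, 5% CO2, with LPS (5 ng/ml final) and test compound (0.1% DMSO final). Cells are human PBMC (6×10^6 cells/ml) or plate-adherent mononuclear cells (2.5−3.0×10^5 per well), and the 5–6 compound concentrations span the ICE Ki.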
row,Structure (SMILES),IC50 [nM]
1,"O=C(O)CC(NC(=O)[C@@H]1CCCN2C(=O)CC[C@H](NC(=O)c3ccccc3)C(=O)N12)C(=O)CF (stereo partly drawn) [Compound 230e, [3RS,(1S,9S)]3-(9-Benzoylamino-6,10-dioxo-1,2,3,4,7,8,9,10-octahydro-6H-pyridazino[1,2-a][1,2]-diazepine-1-carboxamido)-5-fluoro-4-oxopentanoic acid]",325

# Same assay, conditions: Homo sapiens, PBMC, * = values obtained upon reassay
row,Structure (SMILES),IC50 [nM]
1,CCOC(=O)C[C@H](NC(=O)[C@@H]1CCCN2C(=O)CC[C@H](NC(=O)c3ccccc3)C(=O)N12)C(OCC)OCC [Compound 2100b],> 20000
2,"CC(C)(C)OC(=O)C[C@@H](C=O)NC(=O)[C@@H]1CCCN2C(=O)CC[C@H](NC(=O)c3ccccc3)C(=O)N12 [Compound 302, [3S(1S,9S)3-(9-Benzoylamino-6,10-dioxo-1,2,3,4,7,8,9,10-octahydro-6H-pyriazino-[1,2-a][1,2]diazapine-1-carboxamido)-amino]-4-oxobutanoic acid tert-butyl ester]",> 20000
3,"CC(C)OC1OC(=O)C[C@@H]1NC(=O)[C@@H]1CCCN2C(=O)CC[C@H](NC(=O)c3ccccc3)C(=O)N12 (stereo partly drawn) [Compound 2100a, [1S,9S(2RS,3S)]9-Benzoylamino-6,10-dioxo-1,2,3,4,7,8,9,10-octahydro-N-(2-isopropoxy-5-oxo-tetrahydro-furan-3-yl)-6H-pyridazino-[1,2-a][1,2]diazepine-1-carboxamide]",1100
4,COC(=O)C[C@H](NC(=O)[C@@H]1CCCN2C(=O)CC[C@H](NC(=O)c3ccccc3)C(=O)N12)C(OC)OC [Compound 2100c],> 20000
5,O=C[C@H](CC(=O)O)NC(=O)[C@@H]1CCCN2CCC[C@H](NC(=O)c3ccccc3)C(=O)N12 [Compound 246],950
6,"O=C1C[C@H](NC(=O)[C@@H]2CCCN3C(=O)CC[C@H](NC(=O)C(=O)c4ccccc4)C(=O)N23)C(OCc2ccccc2)O1 (stereo partly drawn) [Compound 2001, [1S,9S(2RS,3S)]9-Benzoylformylamino-6,10-dioxo-1,2,3,4,7,8,9,10-octahydro-N-(2(R,S)-benzyloxy-5-oxotetrahydrofuran-3-yl)-6H-pyridazino[1,2-a][1,2]-diazepine-1-carboxamide]",1800
7,O=C(O)C[C@H](NC(=O)[C@@H]1CCCN2C(=O)CC[C@H](NC(=O)CCc3ccccc3)C(=O)N12)C(=O)c1ncc(-c2c(Cl)cccc2Cl)o1 [Compound 137],1700
8,O=C(O)C[C@H](NC(=O)[C@@H]1CCCN2C(=O)CC[C@H](NC(=O)CCc3ccccc3)C(=O)N12)C(=O)COC(=O)c1c(Cl)cccc1Cl [Compound 136],870
9,COc1cccc2nc(C(=O)[C@H](CC(=O)O)NC(=O)[C@@H]3CCCN4C(=O)CC[C@H](NC(=O)CCc5ccccc5)C(=O)N34)oc12 [Compound 135a],2800
10,"O=C(O)C[C@H](NC(=O)[C@@H]1CCCN2C(=O)CC[C@H](NC(=O)c3ccccc3)C(=O)N12)C(=O)CSCc1ccccc1Cl [Compound 226e, [3S(1S,9S)]3-(9-Benzoylamino-6,10-dioxo-1,2,3,4,7,8,9,10-octahydro-6H-pyridazino[1,2-a][1,2]-diazepine-1-carboxamido)-5-(2-chlorophenyl)methylthio-4-oxopentanoic acid]",1100
11,CS(=O)(=O)N[C@H]1CCC(=O)N2CCC[C@@H](C(=O)N[C@@H](CC(=O)O)C(=O)COC(=O)c3c(Cl)cccc3Cl)N2C1=O [Compound 138],900
12,"O=C(O)C[C@H](NC(=O)[C@@H]1CCCN2C(=O)CC[C@H](NC(=O)c3ccccc3)C(=O)N12)C(=O)COC(=O)c1c(Cl)cccc1Cl [Compound 217e, [3S(1S,9S)]3-(9-Benzoylamino-6,10-dioxo-1,2,3,4,7,8,9,10-octahydro-6H-pyridazino[1,2-a][1,2]-diazepine-1-carboxamido)-5-(2,6-dichlorobenzoyloxy)-4-oxopentanoic acid]",175
13,"CCOC1OC(=O)C[C@@H]1NC(=O)[C@@H]1CCCN2C(=O)CC[C@H](NC(=O)c3ccccc3)C(=O)N12 (stereo partly drawn) [Compound 2100e, [1S,9S(2RS,3S)]9-Benzoylamino-6,10-dioxo-1,2,3,4,7,8,9,10-octahydro-N-(2-ethoxy-5-oxo-tetrahydro-furan-3-yl)-6H-pyridazino[1,2-a][1,2]-diazepine-1-carboxamide]",800
14,"CC(=O)N[C@H]1CCC(=O)N2CCC[C@@H](C(=O)N[C@@H](CC(=O)O)C(=O)COC(=O)c3c(Cl)cccc3Cl)N2C1=O [Compound 217c, [3S(1S,9S)]3-(9-Acetylamino-6,10-dioxo-1,2,3,4,7,8,9,10-octahydro-6H-pyridazino-[1,2-a][1,2]diazepine-1-carboxamido)-5-(2,6-dichlorobenzoyloxy)-4-oxopentanoic acid]",1700
15,CC(=O)N1C[C@H](NC(=O)c2ccc3ccccc3c2)C(=O)N(CC(=O)N[C@H](C=O)CC(=O)O)c2ccccc21 [Compound 605n],2100
16,"O=C(O)C[C@H](NC(=O)[C@@H]1CCCN2C(=O)CC[C@H](NC(=O)c3ccccc3)C(=O)N12)C(=O)c1nc2cc(Cl)cc(Cl)c2o1 [Compound 223e, [3S(1S,9S)]3-(9-Benzoylamino-6,10-dioxo-1,2,3,4,7,8,9,10-octahydro-6H-pyridazino-[1,2-a][1,2]diazepine-1-carboxamido)-4-(5,7-dichlorobenzoxazol-2-yl)-4-oxobutanoic acid]",3000
17,"O=C1C[C@H](NC(=O)[C@@H]2CCCN3C(=O)CC[C@H](NC(=O)c4ccccc4)C(=O)N23)C(OCc2ccccc2)O1 (stereo partly drawn) [Compound 213e, [1S,9S(2RS,3S)]9-Benzoylamino-6,10-dioxo-1,2,3,4,7,8,9,10-octahydro-N-(2-benzyloxy-5-oxotetrahydrofuran-3-yl)-6H-pyridazino[1,2-a][1,2]-diazepine-1-carboxamide]",900
18,CC(C)OC(=O)C[C@H](NC(=O)[C@@H]1CCCN2C(=O)CC[C@H](NC(=O)c3ccccc3)C(=O)N12)C(OC(C)C)OC(C)C [Compound 2100d],> 20000
19,"O=C(O)C[C@H](NC(=O)[C@@H]1CCCN2C(=O)CC[C@H](NC(=O)OCc3ccccc3)C(=O)N12)C(=O)COC(=O)c1c(Cl)cccc1Cl [Compound 217d, [3S(1S,9S)]3-(9-Benzyloxycarbonylamino-6,10-dioxo-1,2,3,4,7,8,9,10-octahydro-6H-pyridazino[1,2-a][1,2]-diazepine-1-carboxamido)-5-(2,6-dichlorobenzoyloxy)-4-oxopentanoic acid]",340

# Same assay, conditions: Homo sapiens, PBMC, Table 17
row,Structure (SMILES),IC50 [nM]
1,"O=C1C[C@H](NC(=O)[C@@H]2CCCN3C(=O)CC[C@H](NC(=O)c4ccccc4)C(=O)N23)[C@H](OCc2ccccc2)O1 [Compound 2100o, [1S,9S(2R,3S)]9-Benzoylamino-N-(2-benzyloxy-5-oxotetrahydrofuran-3-yl)-6,10-dioxo-1,2,3,4,7,8,9,10-octahydro-6H-pyridazino[1,2-a][1,2]diazepine-1-carboxamide]",1150
2,"O=C1C[C@H](NC(=O)[C@@H]2CCCN3C(=O)CC[C@H](NC(=O)c4ccccc4)C(=O)N23)C(OCc2ccccc2)O1 (single isomer, unassigned) [Compound 2100n]",770
3,"O=C1C[C@H](NC(=O)[C@@H]2CCCN3C(=O)CC[C@H](NC(=O)c4ccccc4)C(=O)N23)C(OCCc2ccccc2)O1 (mixture of isomers) [Compound 2100k, [1S,9S(2RS,3S)]9-Benzoylamino-6,10-dioxo-1,2,3,4,7,8,9,10-octahydro-N-(2-phenethyloxy-5-oxotetrahydrofuran-3-yl)-6H-pyridazino[1,2-a][1,2]diazepine-1-carboxamide]",4000
